Measured values taken from patent publication US12329722B2, “Finished pharmaceutical form with individual medicine dosing capability (embodiments) and methods of its production and use” (PSIMOS, INC., priority 2016, dated 2025).

Experiments:
Format in all cases: physicochemical
[1] = solubility in water/alcohol solutions; conditions: water/alcohol solutions of the abovementioned concentrations
[2] = stability of medicine during application with a piezoelectric apparatus (chromatography); conditions: heat from piezoelectric apparatus above 40 degrees Celsius
Text: Initially, at S110, a head 216 of a printing device 208 is dismantled. The head 216 of the printing device 208 may include a plurality of head nozzles 218 operative to dispense a liquid therefrom. The printing device 208 may be a piezoelectric apparatus, or any other suitable apparatus. The printing device 208 may accurately (e.g., within 5% of a nominal range) output a range of drop sizes (e.g., 2-80 picolitres) at a relatively high dispensing frequency (e.g., 1000-3000 drops per second). The printing device 208 may operate based on an inverse piezoelectric effect, whereby a piezoelectric element is deformed under the influence of an electric field. […] In one or more embodiments, the printing device 208 may include a thermo sensor 230 to control the temperature of the head 216 to avoid heating the medicine to a temperature that results in decomposition of the medicine. […] It is noted that the ranges of acceptable temperatures may be analyzed, as cooling may affect viscosity of the medicine. […] The inventors note that, per their research on the use of vitamin C in a piezoelectric apparatus, during application of the medicine to the porous media, heat resulting from the use of the piezoelectric apparatus occurred above 40 degrees Celsius, as vitamin C was destroyed and its presence was not detected during chromatography. […]

[3] = quantity of medicine that can be applied on unit area of porous media with a jet printer; conditions: fiberglass membrane made by Algstrem
Protocol: Using a jet printer with rechargeable cartridges the solution was applied on a 236.5 cm^2 specimen of media made from cellulose filtering material (size 21.5*1 1 cm^2, format Letter) with different printing qualities in dpi and different area filling densities. […] Following that the quantity of acetylsalicylic acid applied per unit area was analyzed depending on software controlled printing quality (in dpi). Using the specially plotted graduation curve the required printing densities in dpi were selected for applying 130 mg per 0.25 cm^2, or 520 mg/cm^2. The specimen was dried in a hot air flow for guaranteed removal of the water/alcohol solvent and packaged in a polymer container protecting the specimen from direct sunlight. Then the specimen was removed from the container and placed in a glass with water.
A similar procedure was conducted for d, 1-2-(4-isobutylphenyl)-propionic acid (the active pharmaceutical substance of the Ibuprofen medicine) and a fiberglass membrane made by Algstrem, USA, used in immunology.

[4] = desorption of applied medicine from porous media to potable water; conditions: 50 ml of potable water

Compound: CC(=O)Oc1ccccc1C(=O)O [acetylsalicylic acid]
- solubility in water/alcohol solutions [1]: ~100%

Compound: O=C1O[C@H]([C@@H](O)CO)C(O)=C1O [vitamin C]
- stability during application to porous media with piezoelectric apparatus [2]: destroyed

Compound: CC(C)Cc1ccc(C(C)C(=O)O)cc1 (centres unmarked) [d, 1-2-(4-isobutylphenyl)-propionic acid]
- possible quantity that can be applied on 1 cm^2 (unit area) [3]: 300 ± 2 mg
- quantity desorbed to potable water ([4]; 1 cm^2 fiberglass membrane (Algstrem), 300±2 mg applied): 246±2
- share of applied quantity desorbed to potable water ([4]; 1 cm^2 fiberglass membrane): 82%
